# Test results published in PMC9283524 (Nature Communications, 2022).
# Several values for one entry are separate records, joined by “and”; a condition that tells them apart may be missing. Equal values may be shown once. Read-outs that look alike come from different tables or passages of the source.
# Tests used:
# turkey β1-AR E233^5.64A = turkey β1-AR E233^5.64A (Meleagris gallopavo, UniProt P07700, E233A); assay type: cell-based
# Protocol: (§1) CHO cells (transfected with a control empty vector or wild-type or mutant turkey β1-AR) were plated onto six-well plates, and were pre-incubated with culture medium buffered with 0.5 mM IBMX for 30 min at 37 °C[20]. […] After culture medium removal, cells were treated with 0.1 M HCl for 10 minutes at room temperature. After centrifugation, the supernatant was used for cAMP quantification using the Direct Cyclic AMP Enzyme Immunoassay kit (Enzo Life Sciences). […] The cAMP assays were repeated three times, and the data are represented as mean ± SD of the three independent experiments. The analysis was done using the log(agonist) vs. response function of Prism 8 (GraphPad)[20].
# turkey β1-AR F147^ICL2A = turkey β1-AR F147^ICL2A (Meleagris gallopavo, UniProt P07700, F147A); assay type: cell-based
# Chain of turkey β1-AR F147^ICL2A (P07700 whole entry F147A): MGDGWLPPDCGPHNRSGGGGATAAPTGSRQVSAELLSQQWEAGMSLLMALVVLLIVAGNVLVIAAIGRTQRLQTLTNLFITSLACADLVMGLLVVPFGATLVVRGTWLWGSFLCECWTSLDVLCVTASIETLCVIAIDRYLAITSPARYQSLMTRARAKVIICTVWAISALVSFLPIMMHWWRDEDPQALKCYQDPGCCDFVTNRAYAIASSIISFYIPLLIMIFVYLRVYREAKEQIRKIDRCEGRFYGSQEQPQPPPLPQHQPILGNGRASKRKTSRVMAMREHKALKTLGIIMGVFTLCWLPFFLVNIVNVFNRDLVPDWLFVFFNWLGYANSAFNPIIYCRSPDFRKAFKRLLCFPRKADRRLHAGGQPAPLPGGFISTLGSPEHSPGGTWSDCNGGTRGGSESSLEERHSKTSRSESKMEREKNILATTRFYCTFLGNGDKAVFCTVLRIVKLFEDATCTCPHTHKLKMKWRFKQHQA
# Protocol: as §1
# turkey β1-AR P146^ICL2A = turkey β1-AR P146^ICL2A (Meleagris gallopavo, UniProt P07700, P146A); assay type: cell-based
# Chain of turkey β1-AR P146^ICL2A (P07700 whole entry P146A): as the sequence (P07700 whole entry F147A) above, with P146A, A147F counted along it
# Protocol: as §1
# turkey β1-AR Q237^5.68A = turkey β1-AR Q237^5.68A (Meleagris gallopavo, UniProt P07700, Q237A); assay type: cell-based; conditions: for cAMP level: Fig 5c,e source data, Q237A
# Chain of turkey β1-AR Q237^5.68A (P07700 whole entry Q237A): as the sequence (P07700 whole entry F147A) above, with A147F, Q237A counted along it
# Protocol: as §1
# turkey β1-AR S151^ICL2A = turkey β1-AR S151^ICL2A (Meleagris gallopavo, UniProt P07700, S151A); assay type: cell-based; conditions: for cAMP, time course: S151ICL2A
# Chain of turkey β1-AR S151^ICL2A (P07700 whole entry S151A): as the sequence (P07700 whole entry F147A) above, with A147F, S151A counted along it
# Protocol: as §1
# turkey β1-AR T291^6.36A = turkey β1-AR T291^6.36A (Meleagris gallopavo, UniProt P07700, T291A); assay type: cell-based; conditions: for cAMP level: Fig 5c,e source data, T291A
# Chain of turkey β1-AR T291^6.36A (P07700 whole entry T291A): as the sequence (P07700 whole entry F147A) above, with A147F, T291A counted along it
# Protocol: as §1
# wild-type turkey β1-AR [1] = target: T1, wild-type turkey β1-AR (Meleagris gallopavo, UniProt P07700); assay type: cell-based
# T1 sequence (P07700 whole entry): as the sequence (P07700 whole entry F147A) above, with A147F counted along it
# Protocol: as §1
# turkey β1-AR L101^2.64A = turkey β1-AR L101^2.64A (Meleagris gallopavo, UniProt P07700, L101A); assay: cell-based
# Chain of turkey β1-AR L101^2.64A (P07700 whole entry L101A): as the sequence (P07700 whole entry F147A) above, with L101A, A147F counted along it
# Protocol: as §1
# turkey β1-AR T203^ECL2A = turkey β1-AR T203^ECL2A (Meleagris gallopavo, UniProt P07700, T203A); assay: cell-based
# Chain of turkey β1-AR T203^ECL2A (P07700 whole entry T203A): as the sequence (P07700 whole entry F147A) above, with A147F, T203A counted along it
# Protocol: as §1
# turkey β1-AR V326^7.36A = turkey β1-AR V326^7.36A (Meleagris gallopavo, UniProt P07700, V326A); assay: cell-based
# Chain of turkey β1-AR V326^7.36A (P07700 whole entry V326A): as the sequence (P07700 whole entry F147A) above, with A147F, V326A counted along it
# Protocol: as §1
# turkey β1-AR W117^3.28A = turkey β1-AR W117^3.28A (Meleagris gallopavo, UniProt P07700, W117A); assay: cell-based
# Chain of turkey β1-AR W117^3.28A (P07700 whole entry W117A): as the sequence (P07700 whole entry F147A) above, with W117A, A147F counted along it
# Protocol: as §1
# turkey β1-AR W330^7.40A = turkey β1-AR W330^7.40A (Meleagris gallopavo, UniProt P07700, W330A); assay: cell-based; conditions: for cAMP level: Fig 3 source data, W330A
# Chain of turkey β1-AR W330^7.40A (P07700 whole entry W330A): as the sequence (P07700 whole entry F147A) above, with A147F, W330A counted along it
# Protocol: as §1
# wild-type turkey β1-AR [2] = target: T1, wild-type turkey β1-AR; assay: cAMP assay, time course, transfected CHO cells; assay type: cell-based; conditions: for cAMP, time course: WT
# Protocol: as §1
# [3] = system: ligand-bound nucleotide-free β1-AR–Gs complex; assay type: biochemical, turkey; conditions: ligand at ~EC90; 10 μM BODIPY FL GTPγS; 25 °C; mean ± SD
# From the text: To investigate whether ligands with different efficacies have different effects on the stability of the intermediate state, we prepared the complex of ligand-bound β1-AR-Gs (nucleotide-free), and quantified the stability of the intermediate state complex (Fig. 7a). Fluorescently labeled BODIPY-GTPγS binding to the ligand-bound β1-AR–Gs (nucleotide-free) complex eventually leads to the dissociation of the complex to produce the fluorescently labeled product Gαs(BODIPY-GTPγS), which is detected by an increase in fluorescence (the β1-AR–Gαs(BODIPY-GTPγS)–Gβγ intermediate is very transient)[31],[35] […] The data were then fitted by nonlinear association analyses and half-life values (t1/2 = ln 2/k) were calculated based on the rate constant (Fig. 7b–e).
# The reaction was initiated by adding 10 μM BODIPY™ FL GTPγS (Invitrogen). Relative fluorescence units (RFU) change was measured every 12 s for a total of 60 min at 25 °C. The BODIPY-GTPγS binding data were fitted to one phase exponential association curves using GraphPad Prism 8.
# [4] = system: β1-AR mutants of residues that interact with Gs; assay: cAMP assay, dose-response, summary over mutants of Gs-interacting residues; assay type: cell-based, turkey; conditions: range over mutants, Fig. 5c,d
# wild-type turkey β1-AR [5] = target: T1, wild-type turkey β1-AR; conditions: cited from earlier work
# [6] = CHO, 5 min, read-out: Efficacy (% of max cAMP level)
# Chain of turkey β1-AR E233^5.64A (P07700 whole entry E233A): as the sequence (P07700 whole entry F147A) above, with A147F, E233A counted along it
smiles,measurement,setting,value
"CC(CCc1ccc(O)cc1)NCCc1ccc(O)c(O)c1 (centres unmarked) [Dobutamine, dobutamine]",EC50,turkey β1-AR E233^5.64A,7.08 µM
same,Emax,turkey β1-AR E233^5.64A; [6],41 ± 3.7%
same,EC50,turkey β1-AR F147^ICL2A,11.5 µM
same,Emax,turkey β1-AR F147^ICL2A; [6],17 ± 0.2%
same,cAMP level,"turkey β1-AR F147^ICL2A; Fig 5c,e source data, F147A, log[ligand] (M) -9",32
same,EC50,turkey β1-AR P146^ICL2A,4.07 µM
same,Emax,turkey β1-AR P146^ICL2A; [6],38 ± 2.4%
same,EC50,turkey β1-AR Q237^5.68A,9.55 µM
same,Emax,turkey β1-AR Q237^5.68A; [6],21 ± 1.7%
same,cAMP level,turkey β1-AR Q237^5.68A; log[ligand] (M) -3,103 and 114 and 116
same,cAMP level,turkey β1-AR Q237^5.68A; log[ligand] (M) -4,97 and 112 and 118
same,cAMP level,turkey β1-AR Q237^5.68A; log[ligand] (M) -5,66 and 82 and 77
same,cAMP level,turkey β1-AR Q237^5.68A; log[ligand] (M) -6,39 and 42
same,cAMP level,turkey β1-AR Q237^5.68A; log[ligand] (M) -7,36 and 40 and 39
same,cAMP level,turkey β1-AR Q237^5.68A; log[ligand] (M) -8,34 and 39 and 40
same,cAMP level,turkey β1-AR Q237^5.68A; log[ligand] (M) -9,32 and 37 and 40
same,EC50,turkey β1-AR S151^ICL2A,10.5 µM
same,Emax,turkey β1-AR S151^ICL2A; [6],38 ± 1.6%
same,"cAMP, time course",turkey β1-AR S151^ICL2A; 0 min,33 and 34 and 31
same,"cAMP, time course",turkey β1-AR S151^ICL2A; 0.5 min,39 and 36 and 32
same,"cAMP, time course",turkey β1-AR S151^ICL2A; 1 min,38 and 36
same,"cAMP, time course",turkey β1-AR S151^ICL2A; 2 min,41 and 45 and 47
same,"cAMP, time course",turkey β1-AR S151^ICL2A; 5 min,104 and 103
same,"cAMP, time course",turkey β1-AR S151^ICL2A; 10 min,98 and 96 and 94
same,"cAMP, time course",turkey β1-AR S151^ICL2A; 15 min,58 and 63 and 55
same,"cAMP, time course",turkey β1-AR S151^ICL2A; 20 min,48 and 49 and 46
same,"cAMP, time course",turkey β1-AR S151^ICL2A; 25 min,44 and 46 and 42
same,"cAMP, time course",turkey β1-AR S151^ICL2A; 30 min,42 and 49 and 46
same,EC50,turkey β1-AR T291^6.36A,6.61 µM
same,Emax,turkey β1-AR T291^6.36A; [6],21 ± 1.7%
same,cAMP level,turkey β1-AR T291^6.36A; log[ligand] (M) -3,106 and 116 and 114
same,cAMP level,turkey β1-AR T291^6.36A; log[ligand] (M) -4,100 and 115 and 113
same,cAMP level,turkey β1-AR T291^6.36A; log[ligand] (M) -5,82 and 86 and 83
same,cAMP level,turkey β1-AR T291^6.36A; log[ligand] (M) -6,40 and 42 and 41
same,cAMP level,turkey β1-AR T291^6.36A; log[ligand] (M) -7,38 and 39
same,cAMP level,turkey β1-AR T291^6.36A; log[ligand] (M) -8,34 and 39
same,cAMP level,turkey β1-AR T291^6.36A; log[ligand] (M) -9,34 and 36 and 38
same,EC50,wild-type turkey β1-AR [1],1.58 µM
same,Emax,wild-type turkey β1-AR [1]; [6],100%
same,EC50,turkey β1-AR L101^2.64A,6.61 µM
same,Emax,turkey β1-AR L101^2.64A; [6],37 ± 1.1%
same,EC50,turkey β1-AR T203^ECL2A,1.58 µM
same,Emax,turkey β1-AR T203^ECL2A; [6],99 ± 0.7%
same,EC50,turkey β1-AR V326^7.36A,7.59 µM
same,Emax,turkey β1-AR V326^7.36A; [6],38 ± 1.2%
same,EC50,turkey β1-AR W117^3.28A,7.76 µM
same,Emax,turkey β1-AR W117^3.28A; [6],16 ± 0.8%
same,EC50,turkey β1-AR W330^7.40A,2.95 µM
same,Emax,turkey β1-AR W330^7.40A; [6],85 ± 0.8%
same,cAMP level,turkey β1-AR W330^7.40A; log[ligand] (M) -3,346 and 351 and 347
same,cAMP level,turkey β1-AR W330^7.40A; log[ligand] (M) -4,342 and 348 and 346
same,cAMP level,turkey β1-AR W330^7.40A; log[ligand] (M) -5,266 and 272 and 271
same,cAMP level,turkey β1-AR W330^7.40A; log[ligand] (M) -6,127 and 136 and 131
same,cAMP level,turkey β1-AR W330^7.40A; log[ligand] (M) -7,58 and 65 and 63
same,cAMP level,turkey β1-AR W330^7.40A; log[ligand] (M) -8,43 and 48
same,cAMP level,turkey β1-AR W330^7.40A; log[ligand] (M) -9,38 and 45 and 43
same,"cAMP, time course",wild-type turkey β1-AR [2]; 0 min,34 and 32 and 33
same,"cAMP, time course",wild-type turkey β1-AR [2]; 0.5 min,35 and 36 and 37
same,"cAMP, time course",wild-type turkey β1-AR [2]; 1 min,57 and 46 and 50
same,"cAMP, time course",wild-type turkey β1-AR [2]; 2 min,132 and 139 and 131
same,"cAMP, time course",wild-type turkey β1-AR [2]; 5 min,335 and 327 and 343
same,"cAMP, time course",wild-type turkey β1-AR [2]; 10 min,326 and 316 and 321
same,"cAMP, time course",wild-type turkey β1-AR [2]; 15 min,273 and 271 and 269
same,"cAMP, time course",wild-type turkey β1-AR [2]; 20 min,179 and 172 and 177
same,"cAMP, time course",wild-type turkey β1-AR [2]; 25 min,125
same,"cAMP signal, time course","wild-type turkey β1-AR [2]; ligand 10^-3 M, time 0 min",30 and 31 and 29
same,"cAMP signal, time course","wild-type turkey β1-AR [2]; ligand 10^-3 M, time 0.5 min",33 and 38 and 31
same,"cAMP signal, time course","wild-type turkey β1-AR [2]; ligand 10^-3 M, time 1 min",63 and 68 and 61
same,"cAMP signal, time course","wild-type turkey β1-AR [2]; ligand 10^-3 M, time 2 min",163 and 166 and 154
same,"cAMP signal, time course","wild-type turkey β1-AR [2]; ligand 10^-4 M, time 0 min",32 and 33 and 28
same,"cAMP signal, time course","wild-type turkey β1-AR [2]; ligand 10^-4 M, time 0.5 min",39 and 41 and 34
same,"cAMP signal, time course","wild-type turkey β1-AR [2]; ligand 10^-4 M, time 1 min",55 and 61
same,"cAMP signal, time course","wild-type turkey β1-AR [2]; ligand 10^-4 M, time 2 min",143 and 151 and 141
same,"cAMP signal, time course","wild-type turkey β1-AR [2]; ligand 10^-5 M, time 0 min",29 and 33 and 31
same,"cAMP signal, time course","wild-type turkey β1-AR [2]; ligand 10^-5 M, time 0.5 min",34 and 38 and 33
same,"cAMP signal, time course","wild-type turkey β1-AR [2]; ligand 10^-5 M, time 1 min",47 and 51 and 49
same,"cAMP signal, time course","wild-type turkey β1-AR [2]; ligand 10^-5 M, time 2 min",133 and 145 and 130
same,"cAMP signal, time course","wild-type turkey β1-AR [2]; ligand 10^-6 M, time 0 min",30 and 27
same,"cAMP signal, time course","wild-type turkey β1-AR [2]; ligand 10^-6 M, time 0.5 min",39 and 37 and 38
same,"cAMP signal, time course","wild-type turkey β1-AR [2]; ligand 10^-6 M, time 1 min",54 and 56 and 55
same,"cAMP signal, time course","wild-type turkey β1-AR [2]; ligand 10^-6 M, time 2 min",124 and 122 and 120
same,"cAMP signal, time course","wild-type turkey β1-AR [2]; ligand 10^-7 M, time 0 min",28 and 33 and 26
same,"cAMP signal, time course","wild-type turkey β1-AR [2]; ligand 10^-7 M, time 0.5 min",34 and 36 and 32
same,"cAMP signal, time course","wild-type turkey β1-AR [2]; ligand 10^-7 M, time 1 min",37 and 41 and 36
same,"cAMP signal, time course","wild-type turkey β1-AR [2]; ligand 10^-7 M, time 2 min",50 and 56
same,"cAMP signal, time course","wild-type turkey β1-AR [2]; ligand 10^-8 M, time 0 min",27 and 28 and 26
same,"cAMP signal, time course","wild-type turkey β1-AR [2]; ligand 10^-8 M, time 0.5 min",31 and 33 and 29
same,"cAMP signal, time course","wild-type turkey β1-AR [2]; ligand 10^-8 M, time 1 min",34 and 37
same,"cAMP signal, time course","wild-type turkey β1-AR [2]; ligand 10^-8 M, time 2 min",43 and 44
same,"cAMP signal, time course","wild-type turkey β1-AR [2]; ligand 10^-9 M, time 0 min",27 and 31 and 26
same,"cAMP signal, time course","wild-type turkey β1-AR [2]; ligand 10^-9 M, time 0.5 min",31 and 36 and 32
same,"cAMP signal, time course","wild-type turkey β1-AR [2]; ligand 10^-9 M, time 1 min",32 and 34 and 27
same,"cAMP signal, time course","wild-type turkey β1-AR [2]; ligand 10^-9 M, time 2 min",37 and 40 and 35
same,time-dependent cAMP response (phases),"wild-type turkey β1-AR [2]; near-saturating concentration (EC90), Fig. 6",a slower signal activation phase and an even slower signal termination phase
same,Complex half-life,[3],6.9 ± 0.6 min
same,change of EC50 by β1-AR mutations,[4],2 to 7 fold
same,reduction of the cAMP response by β1-AR mutations,[4],17–44%
same,ligand efficacy class,wild-type turkey β1-AR [5],partial agonist
